US6207389A, “Methods of controlling T lymphocyte mediated immune responses” (HRC Research and Development Limited Partnership, priority 1995, dated 2001)

How the values were obtained:
[1] = test system: PBMC from a child with recent onset diabetes; assay: Proliferative response, patient cells (Example 6); assay type: cell-based, human; conditions: 1 μg antigen per culture, 7 days
Procedure: Replicate cultures of PBMC from a child with recent onset diabetes and a healthy control subject were stimulated with P2267, Tep69, Herpes simplex antigen or a mixture of P2267 and Tep69 (1 μg antigen per culture) as described in Example 3. After 2 days of incubation, one patient cell culture and one healthy control culture were harvested for RNA extraction and measurement of IL2 receptor transcripts by RT-PCR, as described by Cheung et al., (1991), J. Biol. Chem., v. 266, pp. 8667-8670. PCR was used to amplify a 739 bp fragment of IL2R coding sequence from patient and control and also a 430 bp region in the human β-actin gene of patient.
Remaining cultures were incubated for a further 5 days and used to determine proliferative responses as described in Example 3.

[2] = test system: NOD mice lymph node cells; assay: Immunization and T cell proliferation assay, NOD mice (Example 11); assay type: in vivo, mouse; conditions: 50 μg sc in complete Freund's adjuvant, recall with 1 μg antigen in vitro
Procedure: (§1) Recombinant truncated p69 was prepared by expression of a portion of the cDNA of IS4. The cDNA was cut a few nucleotides downstream of the 3' terminal of exon 3 and was subcloned into the PET™ expression system according to the manufacturer's recommendations (Novagen Inc., Madison, Wis.). The truncated protein contains 100 amino acids and is essentially identical with the murine molecule.
(§2) Antigens were injected subcutaneously in complete Freunds' adjuvant, and local lymph nodes and blood samples were collected 10 days later. Triplicate cultures of 2×10^5 lymph node cells were incubated for 5 days in serum-free HGM-af Medium™ (Promo Cell, Heidelberg, Germany) in the presence of 1 μg of protein or synthetic peptide as recall antigen. Six hours before harvesting, 1 μCi ^3 H-thymidine (6.7 Ci/mmol) was added to the wells, and isotope incorporation was analysed by liquid scintillation counting. Values are expressed as mean counts per minute ± standard deviation (mean cpm ± SD).
(§3) Young male NOD mice (H2^G7, IE^-/-) received a single immunization with truncated p69 (as encoded by IS4 cDNA) in complete adjuvant, and antibody and T cell proliferative responses were measured 8-10 days later. MHC disparate C57/B6 (H2^b, IE^-/-) and SJL (H2^s, IE^-/-) mice served as non-diabetes prone controls (FIG. 31).

[3] = test system: PBMC from children with recent onset diabetes; assay: Proliferative response of PBMC to peptide fragments in the presence of IL2 (Example 4); assay type: cell-based, human; conditions: patient PBMC
Procedure: (§4) Cultures containing 5×10^4 cells were incubated for 7 days at 37° C. in serum-free HL-1 medium (Ventrex, Portland, Me.) containing 1 μg antigen per well for test samples.
(§5) After an overnight pulse of 1 μci ^3 H thymidine, cultures were harvested and submitted to liquid scintillation counting. Proliferation was expressed as cpm ^3 HTdR×10^-3.
Control cultures were stimulated with 1 μg ovalbumin or horse or human albumin. […] A 4 h. pulse with 1 μCi ^3 H thymidine was used.
Each synthetic peptide was tested with PBMC from at least 3 children with recent onset diabetes. Stimulation Index=^3 H Thymidine Incorporation in peptide-stimulated culture in cpm divided by Thymidine incorporation in control culture in cpm.
Peptides corresponding to stretches of the amino acid sequence of human p69 were also synthesised and the proliferative response to patient PBMC cultures to these peptides were similarly tested, in the presence of IL2.

[4] = test system: PBMC from healthy subjects; assay: T cell proliferation assay with BSA and rec-p69, healthy subjects (Example 3); assay type: cell-based, human; conditions: with or without IL2
Procedure: as §4
(§6) Control cultures were treated with 1 μg human, chick or horse albumin or an equivalent volume of control recombinant antigen prepared from lysates of E. coli carrying wild type plasmid.
as §5
(§7) A parallel set of cell cultures was incubated with the same test antigens or control agents in the presence of 10 U human IL2.

C57/B6 and SJL mice = assay: Serum antibodies to BSA and p69 by fluoroimmunoassay, control mice (Example 11); assay type: in vivo, mouse; conditions: 50 μg sc in complete Freund's adjuvant
Procedure: (§8) Male non-obese diabetic mice (NOD, 6-7 weeks old) were immunized with 50 μg BSA, ABBOS-short peptide ([…]), recombinant truncated p69 or p69 T cell epitope peptide `Tep69` ([…]) (10). Recombinant truncated p69 was prepared by expression of a portion of the cDNA of IS4. The cDNA was cut a few nucleotides downstream of the 3' terminal of exon 3 and was subcloned into the PET™ expression system according to the manufacturer's recommendations (Novagen Inc., Madison, Wis.).
(§9) Antigens were injected subcutaneously in complete Freunds' adjuvant, and local lymph nodes and blood samples were collected 10 days later. […] Six hours before harvesting, 1 μCi ^3 H-thymidine (6.7 Ci/mmol) was added to the wells, and isotope incorporation was analysed by liquid scintillation counting. Values are expressed as mean counts per minute ± standard deviation (mean cpm ± SD).
(§10) Serum antibodies to BSA and p69 were measured by particle concentration fluoroimmunoassay, as described (11). […] Bound fluorescence was read by an automated ScreenMachine™ instrument (IDEXX, Portland, Me.). Data are expressed in kilofluorescence units relative to a standard mouse serum analyzed in parallel within each assay plate.
(§11) Young male NOD mice (H2^G7, IE^-/-) received a single immunization with truncated p69 (as encoded by IS4 cDNA) in complete adjuvant, and antibody and T cell proliferative responses were measured 8-10 days later. […]

[5] = test system: C57/B6 and SJL mice lymph node cells; assay: Immunization and T cell proliferation assay, non-diabetes prone control mice (Example 11); assay type: in vivo, mouse; conditions: 50 μg sc in complete Freund's adjuvant
Procedure: as §1, §2, §3

female NOD mice [6] = assay: IDDM development after immunotherapy with BSA or ABBOS in adjuvant (Example 7); assay type: in vivo, mouse; conditions: 150 μg BSA or 50 μg ABBOS in incomplete Freund's Adjuvant sc at 5 weeks, ip booster one week later; up to 9 months
Procedure: (§12) A control group (13 mice) was injected with incomplete Freund's Adjuvant only and a further control group (13 mice) was untreated. A booster injection of the same treatment material was given intraperitoneally one week later.
IDDM development was followed by testing for urine glucose and when urine glucose was detected, blood glucose was then determined.

[7] = test system: PBMC cultures from patients with recent onset diabetes; assay: Proliferative responses to antigen mixtures (Example 5); assay type: cell-based, human; conditions: patient PBMC, no IL2 (FIG. 9A)
Procedure: Proliferation assays were conducted as described in Example 3. Control cultures were treated with 1 μg horse albumin or with the peptides P2240, P2269, P2270 or H1029. Results with control antigens were similar and data were pooled.
Responses were expressed as mean of triplicate cultures; variations were <12%. Responses in the absence of IL2 are shown in FIG. 9, Panel A. Parallel cultures were treated with the same antigens and antigen mixtures in the presence of 10U IL2.

NOD mice = assay: Serum antibodies to BSA and p69 by fluoroimmunoassay, NOD mice (Example 11); assay type: in vivo, mouse; conditions: 50 μg sc in complete Freund's adjuvant
Procedure: as §8, §9, §10, §11

[8] = test system: PBMC from children with recent onset diabetes; assay: T cell proliferation assay with BSA and rec-p69, patients (Example 3); assay type: cell-based, human; conditions: 1 μg antigen
Procedure: as §4, §6, §5, §7

female NOD mice [9] = assay: Circulating IgG anti-BSA antibodies by particle concentration fluoroimmunoassay (Example 7); assay type: in vivo, mouse; conditions: same treatment; over 34 weeks
Procedure: as §12
Circulating IgG anti-BSA antibodies were measured over the 34 weeks of the experiment, using the particle concentration fluoroimmunoassay described by the inventors in International Patent Application No. PCT/CA93/000304.

Substance: bovine serum albumin [BSA]
- proliferation of patient cells [1]: 6740±480 cpm
- T cell proliferative response after immunisation [2]: vigorous B- and T cell responses
- PBMC proliferative response [3]: significantly higher than responses to control antigens or peptides
- proliferative response of samples from healthy subjects [4]: no significant proliferative response
- antibody response after immunisation (anti-p69 or anti-BSA) (C57/B6 and SJL mice): vigorous B- and T cell responses
- T cell proliferative response after immunisation [5]: vigorous B- and T cell responses
- development of IDDM (female NOD mice [6]): complete prevention of IDDM
- PBMC proliferation in the absence of IL2 [7]: gave PBMC proliferation in the absence of IL2
- antibody response after immunisation (anti-p69 or anti-BSA) (NOD mice): vigorous B- and T cell responses
- proliferative response of patient samples ([8]; absence of IL2): marked proliferative response
- proliferative response of patient samples ([8]; presence of 10 U IL2): increased response
- anti-BSA antibody response (female NOD mice [9]): massive antibody response
